pEC50, pKi: −log10 of the molar value.

The target of one series is T1, HIV-Integrase (Human immunodeficiency virus type 1 group M subtype B, UniProt P12497).
T1 construct: Recombinant integrase (0.26 ng) was incubated with the beads
The experiment in a line: HIV-Integrase binding assay (competition with [3H]-compound I, SPA). The note with it: competitive binding vs [3H]-compound I to purified integrase; Ki by Cheng and Prusoff; read-out: in vitro binding. The method, then: HIV-Integrase Inhibition Activity. To evaluate in-vitro activity against HIV-integrase, 5 pmole of biotin labeled substrate DNA was bound to 100 μg of Streptavidin coated PVT SPA beads (Amersham Pharmacia Biotech). Recombinant integrase (0.26 ng) was incubated with the beads for 90 min at 37° C. Unbound enzyme was removed by washing the complex followed by addition of inhibitors and 0.1 fmol of P33 labeled target DNA. The reaction was stopped by adding EDTA to a final concentration of 10 mM. Samples were counted in TopCountNXT (Packard) and the CPM was used as a measure of integration. The reaction condition was as described in A. Engelman and R. Craigie, J. Virol. 69, 5908-5911 (1995). The sequences of substrate and target DNA were described in Nucleic Acid Research 22,1121-1122 (1994).
HIV-Integrase binding assay. In this assay competitive binding experiments with test compounds and a radiolabeled integrase inhibitor (compound I) are performed against purified integrase. SPA bead/DNA/enzyme complexes were prepared as for the integrase inhibition assay except, to each well, 0.69 μl of integrase enzyme ([…]) was used per 2 μl of LTR DNA-attached scintillation proximity beads (stock 50 mg/ml). Binding reactions were carried out in 96-well white polystyrene assay plates (Corning, #3600). The following was added sequentially to each well: 20 μl of water or 20 μl of human serum (Cellgro Cat# 35-060-CL), 5 μl of serially diluted compound (in 50% DMSO/50% integrase SPA buffer), 5 μl of [^3H]-compound I (6,000 cpm/μl in SPA buffer) and 20 μl of bead/DNA/enzyme complex. The plates were shaken for 2 hours and then allowed to sit at room temperature without shaking overnight. The [^3H]-compound I binding was measured using a Topcount scintillation counter. Cheng and Prusoff equations were used to convert the inhibition of compound 1 binding into the corresponding Ki value. Activity equal to A refers to a compound having Ki=0.001 to 0.003 μM while B and C denote compounds having Ki=0.003 to 0.05 μM and Ki≧0.050 μM respectively.

The subject of series [1] is recombinant NL-Rluc virus. The series is described as follows: Inhibition of HIV replication (NL-RLuc virus, Renilla luciferase). It counts as cell-based. The note with it: Human immunodeficiency virus 1, read-out: antiviral actitively.

For `O=C(NCc1ccc(F)cc1)c1nc2n(c(=O)c1O)CCOCC2` [Example 31, N-((4-fluorophenyl)methyl)-3-hydroxy-4-oxo-6,7,9,10-tetrahydro-4H-pyrimido[1,2-d][1,4]oxazepine-2-carboxamide], the melting point (usually the temperature of the solid-liquid transition) was 197 to 199 °C. In addition, the pKi at HIV-Integrase was 7.30 to 8.52. For the same compound, the pEC50 in series [1] is less than 7.30.
For the compound `Cc1ncn(-c2cc(F)ccc2CNC(=O)c2nc3n(c(=O)c2O)CCOCC32CCOCC2)n1` [Example 35, N-((4-fluoro-2-(3-methyl-1H-1,2,4-triazol-1-yl)phenyl)methyl)-3′-hydroxy-4′-oxo-2,3,5,6,6′,7′-hexahydro-4′H-spiro[pyran-4,10′-pyrimido[1,2-d][1,4]oxazepine]-2′-carboxamide], at HIV-Integrase, the pKi is 7.30 to 8.52. The pEC50 in series [1] is 8.00 to 9.00.
In the same order, the values of `O=C(NCc1ccc(F)cc1-n1cncn1)c1nc2n(c(=O)c1O)CCOCC21CCC1` [Example 9, N-((4-fluoro-2-(1H-1,2,4-triazol-1-yl)phenyl)methyl)-3′-hydroxy-4′-oxo-6′,7′-dihydro-4′H-spiro[cyclobutane-1,10′-pyrimido[1,2-d][1,4]oxazepine]-2′-carboxamide] are 8.52 to 9.00 and 8.00 to 9.00.
For `COCc1ncn(-c2cc(F)ccc2CNC(=O)c2nc3n(c(=O)c2O)CCOCC32CCOCC2)n1` [Example 26, N-((4-fluoro-2-(3-((methyloxy)methyl)-1H-1,2,4-triazol-1-yl)phenyl)methyl)-3′-hydroxy-4′-oxo-2,3,5,6,6′,7′-hexahydro-4′H-spiro[pyran-4,10′-pyrimido[1,2-d][1,4]oxazepine]-2′-carboxamide] the same measures were 7.30 to 8.52 and 7.30 to 8.00.
As to `Cc1ncn(-c2cc(F)ccc2CNC(=O)c2nc3n(c(=O)c2O)CCOCC32CCCC2)n1` [Example 21, N-((4-fluoro-2-(3-methyl-1H-1,2,4-triazol-1-yl)phenyl)methyl)-3′-hydroxy-4′-oxo-6′,7′-dihydro-4′H-spiro[cyclopentane-1,10′-pyrimido[1,2-d][1,4]oxazepine]-2′-carboxamide], the pKi on HIV-Integrase was 8.52 to 9.00. Besides, in series [1], the pEC50 was 8.00 to 9.00.
For `Cc1ncnn1-c1cc(F)ccc1CNC(=O)c1nc2n(c(=O)c1O)CCOCC21CCCC1` [Example 23, N-((4-fluoro-2-(5-methyl-1H-1,2,4-triazol-1-yl)phenyl)methyl)-3′-hydroxy-4′-oxo-6′,7′-dihydro-4′H-spiro[cyclopentane-1,10′-pyrimido[1,2-d][1,4]oxazepine]-2′-carboxamide], at HIV-Integrase, the pKi is 8.52 to 9.00. In addition, the pEC50 in series [1] is 8.00 to 9.00.
Turning to `CC1(C)COCCn2c1nc(C(=O)NCc1ccc(F)cc1N1CCCC1=O)c(O)c2=O` [Example 16, N-((4-fluoro-2-(2-oxo-1-pyrrolidinyl)phenyl)methyl)-3-hydroxy-10,10-dimethyl-4-oxo-6,7,9,10-tetrahydro-4H-pyrimido[1,2-d][1,4]oxazepine-2-carboxamide], the pKi at HIV-Integrase was 8.52 to 9.00. Besides, the pEC50 in series [1] is 8.00 to 9.00.
Regarding `Cn1nnc(-c2cc(F)ccc2CNC(=O)c2nc3n(c(=O)c2O)CCOCC32CCCC2)n1` [Example 15, N-((4-fluoro-2-(2-methyl-2H-tetrazol-5-yl)phenyl)methyl)-3′-hydroxy-4′-oxo-6′,7′-dihydro-4′H-spiro[cyclopentane-1,10′-pyrimido[1,2-d][1,4]oxazepine]-2′-carboxamide], the pKi at HIV-Integrase was 8.52 to 9.00. In addition, the pEC50 in series [1] was 8.00 to 9.00.
For `Cc1nc(C)n(-c2cc(F)ccc2CNC(=O)c2nc3n(c(=O)c2O)CCOCC3(C)C)n1` [Example 5, N-((2-(3,5-dimethyl-1H-1,2,4-triazol-1-yl)-4-fluorophenyl)methyl)-3-hydroxy-10,10-dimethyl-4-oxo-6,7,9,10-tetrahydro-4H-pyrimido[1,2-d][1,4]oxazepine-2-carboxamide] the same measures were 7.30 to 8.52 and 7.30 to 8.00.
In the same order, the values of `Cc1ncn(-c2cc(F)ccc2CNC(=O)c2nc3n(c(=O)c2O)CCOCC3(C)C)n1` [Example 6, N-((4-fluoro-2-(3-methyl-1H-1,2,4-triazol-1-yl)phenyl)methyl)-3-hydroxy-10,10-dimethyl-4-oxo-6,7,9,10-tetrahydro-4H-pyrimido[1,2-d][1,4]oxazepine-2-carboxamide] are 7.30 to 8.52 and 8.00 to 9.00.
For `Cc1nc(C)n(-c2cc(F)ccc2CNC(=O)c2nc3n(c(=O)c2O)CCOCC32CCC2)n1` [Example 11, N-((2-(3,5-dimethyl-1H-1,2,4-triazol-1-yl)-4-fluorophenyl)methyl)-3′-hydroxy-4′-oxo-6′,7′-dihydro-4′H-spiro[cyclobutane-1,10′-pyrimido[1,2-d][1,4]oxazepine]-2′-carboxamide] the same measures were 7.30 to 8.52 and 8.00 to 9.00.

The values are drawn from patent publication US8039458B2, “HIV integrase inhibitors” (priority 2005, dated 2011).
